# Experimental data published in the NIST ThermoML archive (doi:10.1021/je7000039).
# Numbers after ± are expanded uncertainties.
# Settings: Crystal; DTA
row,SMILES,Normal melting temperature [°C]
1,C[C@@H]1CC[C@H]2[C@@H](C)C(=O)O[C@@H]3O[C@@]4(C)CC[C@@H]1[C@]32OO4 [artemisinin],148.28 ± 0.5
2,C[C@H]1[C@H](OC(=O)CCC(=O)O)O[C@@H]2O[C@@]3(C)CC[C@H]4[C@H](C)CC[C@@H]1[C@@]24OO3 [artesunate],139.66 ± 0.5
3,CO[C@H]1O[C@@H]2O[C@@]3(C)CC[C@H]4[C@H](C)CC[C@@H]([C@H]1C)[C@@]24OO3 [beta-artemether],83.98 ± 0.5
